For this experiment, the system named is P388 leukemia ip, CD2F1 mice, survival T/C. The experiment in a line: NCI In Vivo Anticancer Drug Screen. Data for tumor model P388 Leukemia (intraperitoneal) in CD2F1 (CDF1) mice. Particulars: endpoint: median survival time, higher = longer survival. The essentials: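 Mice carrying the transplanted tumor received test compound or vehicle. Survival was recorded in each group, and the value is the treated-group measurement divided by that of the vehicle-treated control group.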

Where [1] appears, read: dose: 50.0 mg/kg/injection, schedule: Q01DX005 (ip), vehicle: Klucel (hydroxypropylcellulose) (HPC).
The mark [2] stands for this setting: dose: 100.0 mg/kg/injection, schedule: Q01DX005 (ip), vehicle: Klucel (hydroxypropylcellulose) (HPC).
[3] abbreviates: dose: 200.0 mg/kg/injection, schedule: Q01DX005 (ip), vehicle: Klucel (hydroxypropylcellulose) (HPC).
Setting [4] is: dose: 50.0 mg/kg/injection, schedule: Q01DX009 (ip), vehicle: Klucel (hydroxypropylcellulose) (HPC).
The mark [5] stands for this setting: dose: 100.0 mg/kg/injection, schedule: Q01DX009 (ip), vehicle: Klucel (hydroxypropylcellulose) (HPC).
[6] abbreviates: dose: 200.0 mg/kg/injection, schedule: Q01DX009 (ip), vehicle: Klucel (hydroxypropylcellulose) (HPC).
Where [7] appears, read: dose: 25.0 mg/kg/injection, schedule: Q01DX005 (ip), vehicle: Klucel (hydroxypropylcellulose) (HPC).
[8] abbreviates: dose: 60.0 mg/kg/injection, schedule: Q01DX005 (ip), vehicle: saline with Tween-80.
Where [9] appears, read: dose: 50.0 mg/kg/injection, schedule: Q01DX009 (ip), vehicle: saline with Tween-80.
Setting [10] is: dose: 240.0 mg/kg/injection, schedule: Q01DX005 (ip), vehicle: saline with Tween-80.
Setting [11] is: dose: 120.0 mg/kg/injection, schedule: Q01DX005 (ip), vehicle: saline with Tween-80.
Setting [12] is: dose: 50.0 mg/kg/injection, schedule: Q01DX009 (ip), vehicle: saline.
Where [13] appears, read: dose: 100.0 mg/kg/injection, schedule: Q01DX009 (ip), vehicle: saline.
Setting [14] is: dose: 200.0 mg/kg/injection, schedule: Q01DX009 (ip), vehicle: saline.
Where [15] appears, read: dose: 12.5 mg/kg/injection, schedule: Q01DX009 (ip), vehicle: saline with Tween-80.
Setting [16] is: dose: 50.0 mg/kg/injection, schedule: Q04DX003 (ip), vehicle: saline with Tween-80.
[17] abbreviates: dose: 100.0 mg/kg/injection, schedule: Q04DX003 (ip), vehicle: saline with Tween-80.

“And” between values parts separate entries of the source, which are not always exact repeats. Equal entries are not always repeated. Inconclusive results and toxic doses are left out.

25 compounds from PubChem BioAssay AID330 (DTP/NCI, 2004) can be followed below.

For the compound `C=C1C(=O)OC2C(OC(C)=O)CCCC12` (stereo unspecified), the T/C was 112 % of control (dose: 60.0 mg/kg/injection, schedule: Q01DX005 (ip), vehicle: Klucel (hydroxypropylcellulose) (HPC)); 103 % of control (dose: 120.0 mg/kg/injection, schedule: Q01DX005 (ip), vehicle: Klucel (hydroxypropylcellulose) (HPC)); 108 % of control (dose: 240.0 mg/kg/injection, schedule: Q01DX005 (ip), vehicle: Klucel (hydroxypropylcellulose) (HPC)).
`CC(=O)/C=C1/N(C)c2ccccc2C1(C)C`: the T/C is 100 % of control under setting [1], 100 % of control under setting [2] and 99 % of control under setting [3].
`O=C(NC(=O)C(F)(F)C(F)(F)F)Nc1ccc(Cl)cc1`: the T/C is 115 % of control under setting [4], 98 % of control under setting [5] and 101 % of control under setting [6].
Take `O=C(O[C@H]1CCN2C[C@H]3C[C@H](CN4C(=O)CCC[C@H]34)[C@@H]2C1)c1ccc(O)cc1`: the T/C by setting is: (dose: 6.25 mg/kg/injection, schedule: Q01DX005 (ip), vehicle: Klucel (hydroxypropylcellulose) (HPC)) 103 % of control; (dose: 12.5 mg/kg/injection, schedule: Q01DX005 (ip), vehicle: Klucel (hydroxypropylcellulose) (HPC)) 106 % of control; under setting [7], 104 % of control.
As to `COc1ccc(C(Cl)(c2ccccc2)c2ccc(C(C)=O)cc2)cc1` (stereo unspecified), the T/C was 107 % of control (dose: 15.0 mg/kg/injection, schedule: Q01DX005 (ip), vehicle: saline with Tween-80); 101 % of control (dose: 30.0 mg/kg/injection, schedule: Q01DX005 (ip), vehicle: saline with Tween-80); 88 % of control and 97 % of control under setting [8].
As to `COc1ccc2nc3cc(Cl)ccc3c(NCCNCCNCCNc3c4ccc(Cl)cc4nc4ccc(OC)cc34)c2c1`, the T/C under setting [9] is 115 % of control.
On to `Brc1ccccc1C(Nc1nncs1)Nc1nncs1`, for which the T/C is, setting by setting: under setting [8], 117 % of control and 123 % of control; under setting [10], 154 % of control and 156 % of control; (dose: 480.0 mg/kg/injection, schedule: Q01DX005 (ip), vehicle: saline with Tween-80) 169 % of control.
Turning to `CN(C)C1=NC(NC(C)(C)C)(N(C)C)OC(N(C)C)=N1` (stereo unspecified), the T/C is 100 % of control (dose: 25.0 mg/kg/injection, schedule: Q01DX005 (ip), vehicle: saline); 100 % of control (dose: 50.0 mg/kg/injection, schedule: Q01DX005 (ip), vehicle: saline); 104 % of control (dose: 100.0 mg/kg/injection, schedule: Q01DX005 (ip), vehicle: saline).
In the case of `O=C(Nc1ccc(Cl)cc1)Nc1nnc(-c2ccccc2Br)o1`, the T/C is 105 % of control under setting [8], 94 % of control under setting [11] and 95 % of control under setting [10].
Regarding `CC(C)[C@H](C)C(=O)C1OCOC(C2CC(=O)NC(=O)C2)[C@@H]1O` (stereo partly specified), the T/C (dose: 0.01 mg/kg/injection, schedule: Q01DX009 (ip), vehicle: distilled water + alcohol) is 102 % of control; the T/C (dose: 0.03 mg/kg/injection, schedule: Q01DX009 (ip), vehicle: distilled water + alcohol) is 109 % of control; the T/C (dose: 0.06 mg/kg/injection, schedule: Q01DX009 (ip), vehicle: distilled water + alcohol) is 109 % of control; the T/C (dose: 0.12 mg/kg/injection, schedule: Q01DX009 (ip), vehicle: distilled water + alcohol) is 100 % of control.
Regarding `CCCCC1(CC(=O)OCC)SCCN1C(N)=O` (stereo unspecified), the T/C under setting [4] is 100 % of control, the T/C under setting [5] was 108 % of control and the T/C under setting [6] was 106 % of control.
`COc1ccc(OC)c(NC(=O)CCCC(=O)CC(=O)C(C)(C)C)c1`: the T/C is, setting by setting: under setting [8], 101 % of control; under setting [11], 104 % of control; under setting [10], 93 % of control.
In the case of `CCN(CC)c1cccc(OC(=O)Nc2cccc(C(F)(F)F)c2)c1`, the T/C under setting [8] is 106 % of control, the T/C under setting [11] was 94 % of control and the T/C under setting [10] is 97 % of control.
For `Nc1cc(=O)nc2cn[nH]n12`, the T/C reads like this: under setting [12], 92 % of control; under setting [13], 101 % of control; under setting [14], 90 % of control.
Take `COc1ccc(OC)c2c(Cl)cc(N)nc12`: the T/C is 102 % of control under setting [7], 106 % of control under setting [1], 101 % of control under setting [2] and 102 % of control under setting [3].
Regarding `CCCN(CCC)CN1C(=O)c2ccccc2C1=O`, the T/C under setting [7] was 106 % of control and 92 % of control; the T/C under setting [1] was 100 % of control and 105 % of control and 106 % of control; the T/C under setting [2] was 109 % of control and 89 % of control and 95 % of control; the T/C under setting [3] is 99 % of control and 108 % of control.
As to `O=C(NNc1ccccc1)c1ccccc1Cl`, the T/C is, setting by setting: (dose: 25.0 mg/kg/injection, schedule: Q01DX009 (ip), vehicle: saline) 101 % of control; under setting [12], 105 % of control; under setting [13], 97 % of control; under setting [14], 98 % of control.
For the compound `O=C(Nc1ccccc1C(=O)OCCCl)NN1CCCCCC1`, the T/C was 107 % of control under setting [1], 100 % of control under setting [2] and 98 % of control under setting [3].
As to `CN(C)C(=S)S(=O)(=O)c1ccc(Cl)cc1`, the T/C is 105 % of control under setting [15]; 96 % of control (dose: 25.0 mg/kg/injection, schedule: Q01DX009 (ip), vehicle: saline with Tween-80); 119 % of control (dose: 25.0 mg/kg/injection, schedule: Q04DX002 (ip), vehicle: Klucel (hydroxypropylcellulose) (HPC)); 96 % of control under setting [9]; 112 % of control (dose: 50.0 mg/kg/injection, schedule: Q04DX002 (ip), vehicle: Klucel (hydroxypropylcellulose) (HPC)).
For `COC(=O)/C=C/COc1ccccc1C(=O)NCc1ccc([N+](=O)[O-])cc1`, the T/C by setting is: (dose: 100.0 mg/kg/injection, schedule: Q04DX003 (ip), vehicle: Klucel (hydroxypropylcellulose) (HPC)) 109 % of control; (dose: 200.0 mg/kg/injection, schedule: Q04DX003 (ip), vehicle: Klucel (hydroxypropylcellulose) (HPC)) 108 % of control; (dose: 400.0 mg/kg/injection, schedule: Q04DX003 (ip), vehicle: Klucel (hydroxypropylcellulose) (HPC)) 109 % of control.
Consider `N#CSC/C(=N\Nc1ccc([N+](=O)[O-])cc1[N+](=O)[O-])c1ccccc1`, for which the T/C by setting is: under setting [16], 100 % of control; under setting [17], 95 % of control; (dose: 200.0 mg/kg/injection, schedule: Q04DX003 (ip), vehicle: saline with Tween-80) 113 % of control.
`O=c1nc2ccccc2c2n1CCN2`: the T/C (dose: 50.0 mg/kg/injection, schedule: Q01DX005 (ip), vehicle: saline with Tween-80) is 105 % of control; the T/C (dose: 100.0 mg/kg/injection, schedule: Q01DX005 (ip), vehicle: saline with Tween-80) was 101 % of control; the T/C (dose: 200.0 mg/kg/injection, schedule: Q01DX005 (ip), vehicle: saline with Tween-80) was 100 % of control.
As to `CN(C)C(=O)Nc1cccc(OC(=O)Nc2ccccc2)c1`, the T/C (dose: 25.0 mg/kg/injection, schedule: Q04DX003 (ip), vehicle: saline with Tween-80) is 101 % of control; the T/C under setting [16] is 101 % of control; the T/C under setting [17] is 90 % of control.
Regarding `CN1C(=O)C2CCCN2C(=O)C1(C)NC(=O)OCc1ccccc1` (stereo unspecified), the T/C by setting is: (dose: 3.12 mg/kg/injection, schedule: Q04DX003 (ip), vehicle: saline) 107 % of control and 98 % of control; (dose: 6.25 mg/kg/injection, schedule: Q04DX003 (ip), vehicle: saline) 105 % of control and 98 % of control; (dose: 12.5 mg/kg/injection, schedule: Q04DX003 (ip), vehicle: saline) 102 % of control and 105 % of control; (dose: 25.0 mg/kg/injection, schedule: Q04DX003 (ip), vehicle: saline) 99 % of control and 107 % of control; (dose: 25.0 mg/kg/injection, schedule: Q04DX003 (ip), vehicle: suspension in saline) 100 % of control.
For `Br[C](Br)(Br)[Hg][c]1ccccc1`, the T/C is 106 % of control (dose: 3.13 mg/kg/injection, schedule: Q01DX009 (ip), vehicle: saline with Tween-80); 100 % of control (dose: 6.25 mg/kg/injection, schedule: Q01DX009 (ip), vehicle: saline with Tween-80); 104 % of control under setting [15].
